This note sets out measurements from ChEMBL document CHEMBL4371019, “Sanguiin H-11 from Sanguisorbae radix protects HT22 murine hippocampal cells against glutamate-induced death” (2019).

The species named for assay [1] is Mus musculus. Put plainly: Inhibition of glutamate-induced JNK phosphorylation in mouse HT22 cells at 10 to 20 after 8 hrs by Western blot analysis. In kind it is cell-based. Background: In western blotting, separated proteins are transferred to a membrane and probed.
Assay [2] relates to HT-22. Put plainly: Neuroprotective activity against glutamate-induced neuronal cell death in mouse HT22 cells assessed as increase in cell viability at 20 to 50 uM after 24 hrs by MTT assay. In kind it is functional, cell-based. (Tetrazolium assays rely on reduction of a dye to a coloured formazan, in cell work by metabolically active cells.)
In assay [3] the target is MAP kinase p38 (Mus musculus) (UniProt P47811+O08911+Q9WUI1+Q9Z1B7). Put plainly: Inhibition of glutamate-induced p38 MAPK phosphorylation in mouse HT22 cells at 10 to 20 after 8 hrs by Western blot analysis. Format: cell-based.
Assay [4] concerns HT-22. Put plainly: Inhibition of glutamate-induced apoptosis in mouse HT22 cells assessed as apoptotic cells at 10 uM after 12 hrs by AlexaFluor 488-Annexin V/propidium iodide staining-based assay (reference value: 54%). Format: functional. The note with it: HT-22, 12 h.
Assay [5] concerns HT-22. Kind of assay: Neuroprotective activity against glutamate-induced neuronal cell death in mouse HT22 cells assessed as reduction in intracellular calcium level at 10 to 20 uM after 8 hrs by fluorescence microscopic analysis. Format: functional, cell-based. On the technique in general: A change in cytosolic calcium serves as a functional read-out for many receptors and channels.

The target of assay [6] is Mitogen-activated protein kinase 1 and 3 (ERK2 and ERK1) (Mus musculus) (UniProt P63085+Q63844). Kind of assay: Inhibition of glutamate-induced ERK1/2 phosphorylation in mouse HT22 cells at 10 to 20 after 8 hrs by Western blot analysis. Format: cell-based.
Mitogen-activated protein kinase 1 and 3 (ERK2 and ERK1) (Mus musculus), sequence (P63085 whole entry, looked up): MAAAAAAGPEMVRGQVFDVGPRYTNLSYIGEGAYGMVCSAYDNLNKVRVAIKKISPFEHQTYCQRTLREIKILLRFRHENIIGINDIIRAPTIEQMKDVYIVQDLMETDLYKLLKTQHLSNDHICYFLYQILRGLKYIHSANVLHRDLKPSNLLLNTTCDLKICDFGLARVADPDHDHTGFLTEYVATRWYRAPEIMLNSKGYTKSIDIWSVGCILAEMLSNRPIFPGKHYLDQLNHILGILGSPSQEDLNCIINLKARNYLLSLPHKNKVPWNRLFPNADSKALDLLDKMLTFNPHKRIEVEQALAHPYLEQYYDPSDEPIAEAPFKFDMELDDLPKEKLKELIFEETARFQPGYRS
Mitogen-activated protein kinase 1 and 3 (ERK2 and ERK1) (Mus musculus), sequence (Q63844 whole entry, looked up): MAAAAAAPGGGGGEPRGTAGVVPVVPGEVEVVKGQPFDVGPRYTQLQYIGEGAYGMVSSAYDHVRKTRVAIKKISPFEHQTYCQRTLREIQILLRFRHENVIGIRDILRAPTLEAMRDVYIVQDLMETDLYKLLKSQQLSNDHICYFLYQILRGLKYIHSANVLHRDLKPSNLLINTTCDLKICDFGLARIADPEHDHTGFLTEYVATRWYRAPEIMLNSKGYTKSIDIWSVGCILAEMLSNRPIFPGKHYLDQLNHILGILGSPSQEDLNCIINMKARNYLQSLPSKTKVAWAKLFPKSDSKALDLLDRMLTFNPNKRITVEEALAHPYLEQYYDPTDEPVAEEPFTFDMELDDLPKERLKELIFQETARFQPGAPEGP
Assay [7] deals with HT-22. Put plainly: Neuroprotective activity against glutamate-induced neuronal cell death in mouse HT22 cells at 10 to 20 uM by microscopic analysis. Format: functional, cell-based.
Assay [8] can be described thus: Antioxidant activity assessed as DPPH free radical scavenging activity up to 15 uM incubated for 30 mins. In kind it is functional.
The test system of assay [9] is HT-22. Kind of assay: Inhibition of glutamate-induced apoptosis in mouse HT22 cells assessed as apoptotic cells at 20 uM after 12 hrs by AlexaFluor 488-Annexin V/propidium iodide staining-based assay (reference value: 54%). The note with it: HT-22, 12 h. Format: functional.
Assay [10] has as its system HT-22. Put plainly: Antioxidant activity in mouse HT22 cells assessed as reduction in glutamate-induced increase in intracellular reactive oxygen species level at 10 to 20 uM after 8 hrs by H2DCFDA staining based fluorescence microscopic analysis. Format: functional, cell-based.
Assay [11] concerns HT-22. Put plainly: Neuroprotective activity against glutamate-induced neuronal cell death in mouse HT22 cells assessed as increase in cell viability at 0.5 to 5 uM after 24 hrs by MTT assay. In kind it is functional, cell-based.

Calls of active or inactive are those of the source. The rule behind the calls is not given here.

For `O=C(O[C@@H]1O[C@@H]2COC(=O)c3cc(O)c(O)c(O)c3-c3c(cc(O)c(O)c3O)C(=O)O[C@H]2[C@@H]2OC(=O)c3cc(O)c(O)c(O)c3-c3c(cc(O)c(O)c3O)C(=O)O[C@@H]12)c1cc(O)c(O)c(O)c1`, the inhibition entry in assay [1], in assay [3] and in assay [6] was “Active” each time. Moreover, the result in [2], in assay [5], in [7], in assay [8] and in [10] was Active. Also, the inhibition at 10 µM in [4] turned out to be 12.7%. Moreover, the inhibition at 20 µM in assay [9] is 8.5%.
Take `CC(=O)N[C@@H](CS)C(=O)O`: the result in assay [11] was Active.

Usually inhibition stands for the change of the read-out against control, counted positive when it falls.
